Assay results taken from patent US8940310B2, “Methods of treatment using TLR7 and/or TLR9 inhibitors” (Dynavax Technologies Corporation, priority 2010, dated 2015).
[I] = hypoxanthine (inosine)

Columns and labels:
PDC = details: 129 mice, conventional and plasmacytoid DC, spleen and blood
[1] = Monomer and tetramer formation of IRPs, size-exclusion HPLC; assay type: physicochemical; details: 100 mg/mL in PBS and 0.5M KCl, room temperature
Method: Solutions were prepared of the by mixing 100 mg/mL of the IRP sequences in PBS and 0.5M KCl and storing at room temperature for three to five weeks. The solutions were subsequently analyzed by size-exclusion HPLC.

human B-cells = assay: Human B-cells cultured in the presence of IRPs, IL-6
Method: For the human B-cell assay, B-cells were purified from total blood cells obtained from healthy donors using magnetic beads (CD19 positive). Cells were resuspended in fresh medium (RPMI 1640 with 10% fetal calf serum, 50 units/mL penicillin, 50 μg/mL streptomycin, and 2 mM glutamine). At 48 hours, supernatants were collected and cytokine levels, IL-6, were measured using immunoassay.
To further investigate the effect of IRPs on B-cell stimulatory activity, a wide variety of IRP sequences were assayed for IL-6, along with positive and negative controls. The experiment was performed as described in Example 1 using doses of IRP of either 4.0 μM or 2.0 μM. The positive control was an immunostimulatory sequence (ISS) with SEQ ID NO:157. […] The results are presented as the average normalized IL-6 response over several experiments.

[2] = High dosages of IRPs in rats (weight, deaths, histology); assay type: in vivo, Sprague Dawley rats; details: rat; for Heart: Cell Vacuolation, number of animals / Heart: Hemorrhage, number of animals / Heart: Mononuclear Cell Infiltration, number of animals / Heart: Necrosis, number of animals / Heart: No significant changes, number of animals / Liver: Liver changes, number of animals / Liver: Mixed cell infiltration, number of animals / Liver: Necrosis, number of animals / Liver: No significant changes, number of animals / Liver: Vacuolation, number of animals / Right Kidney: Hydronephrosis, number of animals / Right Kidney: Mineralization, number of animals / Right Kidney: Necrosis, number of animals / Right Kidney: No significant changes, number of animals / Right Kidney: Tubular basophilia, number of animals / Right Kidney: Tubular changes, number of animals: 6 animals
Method: To test the activity of IRPs at high dosages in rats, IRPs (SEQ ID NO:42 and SEQ ID NO:109) or a control (PBS) were subcutaneously administered to 8-9 weeks old, […], 3, 6, and 9 (n=6 per group). Rats were weighed prior to administration and on days 1, 3, 4, 6, 7, and 9. Organs were harvested at the end of the study, and organ weights and tissues levels of the oligonucleotides were determined. In addition, histolocial evaluation of the liver, kidney, and heart was performed.
Rats were weighed prior to administration and on days 1, 3, 6, 7, and 9. Organs were harvested at the end of the study, and organ weights and tissues levels of the oligonucleotides were determined. In addition, histological evaluation of the liver, kidney, and heart was performed.

[3] = High dosages of IRPs in mice (weight, histology); assay type: in vivo, BALB/c mice; details: 100 mg/kg SC days 1, 4, 7, 10
Method: To test the activity of IRPs at high dosages in mice, IRPs or a control (saline) were subcutaneously administered to BALB/c mice at a dosage of 4 mg/kg, 20 mg/kg, 50 mg/kg, or 100 mg/kg on days 1, 4, 7, and 10 (n=5 per group). Mice were weighed prior to administration and on days 2, 4, 7, 9, and 11. Serum cytokines were assayed at two hours post the first and third injections and 24 hours post the fourth injection. Organs were harvested at the end of the study, and organ weights and tissues levels of the oligonucleotides were determined. In addition, histological evaluation of the liver, kidney, and heart was performed.
Mice were weighed prior to administration and on days 1, 3, 4, 6, 7, and 9. Organs were harvested at the end of the study, and organ weights and tissues levels of the oligonucleotides were determined. In addition, histological evaluation of the liver, kidney, and heart was performed.

[4] = Solubility of spacer measured as dialcohol precursor; assay type: physicochemical; details: dodecyl spacer measured as dialcohol precursor
[5] = 10 mg/kg, 0 = no change to 4 = severe
[6] = 90 mg/kg, 0 = no change to 4 = severe

In the case of “5′-TCGTCGAACGTTCGAGATGAT-3′ [SEQ ID NO:158, reference compound]”, the “protection from GC-induced cell death” value (PDC) was “afforded significant protection from GC-induced cell death”.
For “5′-UGC TGC TCC TTG AGI GGT TGT TTG T-3′ (DNA UGCTGCTCCTTGAGNGGTTGTTTGT; DNA, [I] at 15, backbone and methylation of C not given here) [SEQ ID NO:109]”, the “fraction in monomer form” value ([1]; five weeks) was 100%, the “fraction in monomer form” value ([1]; three weeks) was 100% and the “Normalized IL-6 Response (Percentage of Positive Control)” value (human B-cells; Experiment # 1, Max Conc 4.0 uM) was 58%. For the same molecule, the “Normalized IL-6 Response (Percentage of Positive Control)” value (human B-cells; Experiment # 2, Max Conc 4.0 uM) was 52%, the “Normalized IL-6 Response (Percentage of Positive Control)” value (human B-cells; Experiment # 3, Max Conc 4.0 uM) was 39% and the “Normalized IL-6 Response (Percentage of Positive Control)” value (human B-cells; Experiment # 4, Max Conc 4.0 uM) was 45%. For the same molecule, the “Normalized IL-6 Response (Percentage of Positive Control)” value (human B-cells; Experiment # 5, Max Conc 4.0 uM) was 53%, the “Normalized IL-6 Response (Percentage of Positive Control)” value (human B-cells; Experiment # 6, Max Conc 4.0 uM) was 58% and the “Normalized IL-6 Response (Percentage of Positive Control)” value (human B-cells; Experiment # 7, Max Conc 4.0 uM) was 45%. For the same molecule, the “Normalized IL-6 Response (Percentage of Positive Control)” value (human B-cells; Experiment # 8, Max Conc 2.0 uM) was 42%, the “Normalized IL-6 Response (Percentage of Positive Control)” value (human B-cells; Experiment # 9, Max Conc 2.0 uM) was 64% and the “Normalized IL-6 Response (Percentage of Positive Control)” value (human B-cells; Experiment # 10, Max Conc 2.0 uM) was 63%. The “Normalized IL-6 Response (Percentage of Positive Control)” value (human B-cells; Experiment # 11, Max Conc 2.0 uM) was 54%, the “B-cell response as evidenced by IL-6 produced” value (human B-cells; human B-cells with IRP alone, 48 hours, FIGS. 1A-B) was “induced a B-cell response” and the “Kidney: tubular basophilia” value ([2]; 10 mg/kg) was “occurred”. For the same molecule, the “organ weight of the liver, heart, kidney, or spleen” value ([2]; 10 mg/kg or 100 mg/kg SC days 0, 3, 6, 9) was “no significant difference”, the “Heart: Cell Vacuolation, number of animals” value ([2]; 10 mg/kg) was 0 and the “Heart: Hemorrhage, number of animals” value ([2]; 10 mg/kg) was 0. For the same molecule, the “Heart: Mononuclear Cell Infiltration, number of animals” value ([2]; 10 mg/kg) was 0, the “Heart: Necrosis, number of animals” value ([2]; 10 mg/kg) was 0 and the “Heart: No significant changes, number of animals” value ([2]; 10 mg/kg) was 6. The “Liver: Liver changes, number of animals” value ([2]; 10 mg/kg) was 6, the “Liver: Mixed cell infiltration, number of animals” value ([2]; 10 mg/kg) was 6 and the “Liver: Necrosis, number of animals” value ([2]; 10 mg/kg) was 0. The “Liver: No significant changes, number of animals” value ([2]; 10 mg/kg) was 0, the “Liver: Vacuolation, number of animals” value ([2]; 10 mg/kg) was 0 and the “Right Kidney: Hydronephrosis, number of animals” value ([2]; 10 mg/kg) was 0. For the same molecule, the “Right Kidney: Mineralization, number of animals” value ([2]; 10 mg/kg) was 0, the “Right Kidney: Necrosis, number of animals” value ([2]; 10 mg/kg) was 0 and the “Right Kidney: No significant changes, number of animals” value ([2]; 10 mg/kg) was 0. For the same molecule, the “Right Kidney: Tubular basophilia, number of animals” value ([2]; 10 mg/kg) was 6, the “Right Kidney: Tubular changes, number of animals” value ([2]; 10 mg/kg) was 6 and the “Liver: Liver changes, mean severity score” value [2, 5] was 1.0. For the same molecule, the “Liver: Mixed cell infiltration, mean severity score” value [2, 5] was 2.5, the “Right Kidney: Tubular basophilia, mean severity score” value [2, 5] was 1.5 and the “Right Kidney: Tubular changes, mean severity score” value [2, 5] was 1.0. The “Heart: cellular vacuolation” value ([2]; 90 mg/kg) was “present in some animals”, the “Heart: hemorrhage and necrosis” value ([2]; 90 mg/kg) was “noted” and the “Kidney: tubular basophilia” value ([2]; 90 mg/kg) was “occurred”. For the same molecule, the “Liver: hepatocellular cytoplasmic vacuolation” value ([2]; 90 mg/kg) was “hepatocellular cytoplasmic vacuolation”, the “Liver: hepatocellular necrosis” value ([2]; 90 mg/kg) was “hepatocellular necrosis” and the “Renal necrosis” value ([2]; 90 mg/kg) was “noted”. The “deaths two days after the first dose” value ([2]; 90 mg/kg SC, n=6) was “one rat died”, the “Heart: Cell Vacuolation, number of animals” value ([2]; 90 mg/kg) was 5 and the “Heart: Hemorrhage, number of animals” value ([2]; 90 mg/kg) was 1. For the same molecule, the “Heart: Mononuclear Cell Infiltration, number of animals” value ([2]; 90 mg/kg) was 0, the “Heart: Necrosis, number of animals” value ([2]; 90 mg/kg) was 1 and the “Heart: No significant changes, number of animals” value ([2]; 90 mg/kg) was 0. The “Liver: Liver changes, number of animals” value ([2]; 90 mg/kg) was 6, the “Liver: Mixed cell infiltration, number of animals” value ([2]; 90 mg/kg) was 6 and the “Liver: Necrosis, number of animals” value ([2]; 90 mg/kg) was 6. For the same molecule, the “Liver: No significant changes, number of animals” value ([2]; 90 mg/kg) was 0, the “Liver: Vacuolation, number of animals” value ([2]; 90 mg/kg) was 6 and the “Right Kidney: Hydronephrosis, number of animals” value ([2]; 90 mg/kg) was 0. For the same molecule, the “Right Kidney: Mineralization, number of animals” value ([2]; 90 mg/kg) was 1, the “Right Kidney: Necrosis, number of animals” value ([2]; 90 mg/kg) was 1 and the “Right Kidney: No significant changes, number of animals” value ([2]; 90 mg/kg) was 0. The “Right Kidney: Tubular basophilia, number of animals” value ([2]; 90 mg/kg) was 5, the “Right Kidney: Tubular changes, number of animals” value ([2]; 90 mg/kg) was 5 and the “Heart: Cell Vacuolation, mean severity score” value [2, 6] was 1.8. For the same molecule, the “Heart: Hemorrhage, mean severity score” value [2, 6] was 3.0, the “Heart: Necrosis, mean severity score” value [2, 6] was 1.0 and the “Liver: Liver changes, mean severity score” value [2, 6] was 3.5. The “Liver: Mixed cell infiltration, mean severity score” value [2, 6] was 2.0, the “Liver: Necrosis, mean severity score” value [2, 6] was 2.0 and the “Liver: Vacuolation, mean severity score” value [2, 6] was 2.0. The “Right Kidney: Mineralization, mean severity score” value [2, 6] was 1.0, the “Right Kidney: Necrosis, mean severity score” value [2, 6] was 4.0 and the “Right Kidney: Tubular basophilia, mean severity score” value [2, 6] was 3.0. For the same molecule, the “Right Kidney: Tubular changes, mean severity score” value [2, 6] was 2.0, the “total weight and % weight gain/loss” value ([2]; 100 mg/kg) was “decrease in total weight and % weight gain/loss” and the “weight loss as % gain versus pre-dose” value [3] was “provoked weight loss”.
Molecule OCCCCCCCCCCCCO [1,12-dihydroxydodecane] has a solubility [4] of under 5000 µg/mL.
